According to ChEMBL document CHEMBL3232829, “Synthesis and multitarget biological profiling of a novel family of rhein derivatives as disease-modifying anti-Alzheimer agents” (J Med Chem, 2014):
Calls of active or inactive are those of the source. The rule behind the calls is not given here.

Tests used:
[1] = Permeability of the compound by PAMPA assay; type: physicochemical; details: read-out: permeability
Beta-secretase 1 [2] = molecular target: T1, Beta-secretase 1 (Homo sapiens, UniProt P56817); assay: Inhibition of human recombinant BACE1 using methoxycoumarin-Ser-Glu-Val-Asn-Leu-Asp-Ala-Glu-Phe-Lys-dinitrophenyl as substrate preincubated for 1 hr by FRET assay
[3] = molecular target: Amyloid-beta precursor protein (Homo sapiens) (UniProt P05067); assay: Inhibition of amyloid beta-42 (unknown origin) aggregation assessed as amyloid fibril formation at 10 uM after 24 hrs by thioflavin T fluorescence method
[4] = molecular target: Amyloid-beta precursor protein (Homo sapiens) (UniProt P05067); assay: Inhibition of aggregation of amyloid beta-42 (unknown origin) expressed in Escherichia coli BL21 (DE3) assessed as amyloid fibril formation at 10 uM after 24 hrs by thioflavin S fluorescence method
Acetylcholinesterase = Acetylcholinesterase (Homo sapiens, UniProt P22303)
Description: Inhibition of human recombinant AChE using acetylthiocholine iodide as substrate preincubated for 20 mins by Ellman's method

[5] = molecular target: Microtubule-associated protein tau (Homo sapiens) (UniProt P10636); assay: Inhibition of aggregation of tau protein (unknown origin) expressed in Escherichia coli BL21 (DE3) assessed as amyloid fibril formation at 10 uM after 24 hrs by thioflavin S fluorescence method
Cholinesterase = Cholinesterase (Homo sapiens, UniProt P06276); assay: Inhibition of human serum BChE using butyrylthiocholine iodide as substrate preincubated for 20 mins by Ellman's method
Beta-secretase 1 [6] = molecular target: T1, Beta-secretase 1; assay: Inhibition of human recombinant BACE1 using methoxycoumarin-Ser-Glu-Val-Asn-Leu-Asp-Ala-Glu-Phe-Lys-dinitrophenyl as substrate at 1 uM preincubated for 1 hr by FRET assay
Hippocampus [7] = assay: Neuroprotective activity against amyloid beta-42-induced synaptic failure in C57bl6 mouse hippocampal slices assessed as increase of PSD95 protein level at 10 to 100 uM uM after 1 hr by Western blot analysis; type: functional, tissue-based
Hippocampus [8] = assay: Neuroprotective activity against amyloid beta-42-induced synaptic failure in C57bl6 mouse hippocampal slices assessed as increase of SYN protein level at 1 to 100 uM uM after 1 hr by Western blot analysis; type: functional, tissue-based
Hippocampus [9] = assay: Neuroprotective activity against amyloid beta-42-induced synaptic failure in C57bl6 mouse hippocampal slices assessed as increase of SYP protein level at 1 to 100 uM uM after 1 hr by Western blot analysis; type: functional, tissue-based
Hippocampus [10] = assay: Neuroprotective activity against amyloid beta-42-induced synaptic failure in C57bl6 mouse hippocampal slices assessed as increase of VGlut1 protein level at 1 to 100 uM uM after 1 hr by Western blot analysis; type: functional, tissue-based
Mus musculus [11] = assay: Antialzheimer activity in APP-PS1 transgenic 11 month old mouse hippocampus assessed as reduction of dodecamer of amyloid beta level at 2 mg/kg, ip administered 3 times in a week for 4 weeks by immunoblot analysis; type: functional, organism-based; parameters: dose 2 mg/kg
Mus musculus [12] = assay: Antialzheimer activity in APP-PS1 transgenic 7 month old mouse hippocampus assessed as reduction of hexamers of amyloid beta level at 2 mg/kg, ip administered 3 times in a week for 4 weeks by immunoblot analysis; type: functional, organism-based; parameters: dose 2 mg/kg
Hippocampus [13] = assay: Neuroprotective activity against amyloid beta-42-induced synaptic failure in C57bl6 mouse hippocampal slices assessed as induction of field excitatory postsynaptic potential at 10 uM after 1 hr by electrophysiology assay relative to control; type: functional
Mus musculus [14] = assay: Antialzheimer activity in APP-PS1 transgenic 7 month old mouse hippocampus assessed as reduction of dodecamer of amyloid beta level at 2 mg/kg, ip administered 3 times in a week for 4 weeks by immunoblot analysis; type: functional, organism-based; parameters: dose 2 mg/kg
Hippocampus [15] = assay: Neuroprotective activity against amyloid beta-42-induced synaptic failure in C57bl6 mouse hippocampal slices assessed as induction of long-term potentiation at 10 uM after 1 hr by electrophysiology assay relative to control; type: functional
Mus musculus [16] = assay: Antialzheimer activity in APP-PS1 transgenic 11 month old mouse hippocampus assessed as reduction of hexamers of amyloid beta level at 2 mg/kg, ip administered 3 times in a week for 4 weeks by immunoblot analysis; type: functional, organism-based; parameters: dose 2 mg/kg
Hippocampus [17] = assay: Neuroprotective activity against amyloid beta-42-induced synaptic failure in C57bl6 mouse hippocampal slices assessed as increase of GluA2 protein level at 10 to 100 uM uM after 1 hr by Western blot analysis; type: functional, tissue-based
Beta-secretase 1 [18] = molecular target: T1, Beta-secretase 1; details: 5 uM
Hippocampus [19] = assay: Neuroprotective activity against amyloid beta-42-induced synaptic failure in C57bl6 mouse hippocampal slices assessed as increase of GluA2 protein level at 1 to 100 uM uM after 1 hr by Western blot analysis; type: functional, tissue-based
Hippocampus [20] = assay: Neuroprotective activity against amyloid beta-42-induced synaptic failure in C57bl6 mouse hippocampal slices assessed as increase of PSD95 protein level at 1 to 100 uM uM after 1 hr by Western blot analysis; type: functional, tissue-based

Sequence of Microtubule-associated protein tau (Homo sapiens) (P10636 whole entry): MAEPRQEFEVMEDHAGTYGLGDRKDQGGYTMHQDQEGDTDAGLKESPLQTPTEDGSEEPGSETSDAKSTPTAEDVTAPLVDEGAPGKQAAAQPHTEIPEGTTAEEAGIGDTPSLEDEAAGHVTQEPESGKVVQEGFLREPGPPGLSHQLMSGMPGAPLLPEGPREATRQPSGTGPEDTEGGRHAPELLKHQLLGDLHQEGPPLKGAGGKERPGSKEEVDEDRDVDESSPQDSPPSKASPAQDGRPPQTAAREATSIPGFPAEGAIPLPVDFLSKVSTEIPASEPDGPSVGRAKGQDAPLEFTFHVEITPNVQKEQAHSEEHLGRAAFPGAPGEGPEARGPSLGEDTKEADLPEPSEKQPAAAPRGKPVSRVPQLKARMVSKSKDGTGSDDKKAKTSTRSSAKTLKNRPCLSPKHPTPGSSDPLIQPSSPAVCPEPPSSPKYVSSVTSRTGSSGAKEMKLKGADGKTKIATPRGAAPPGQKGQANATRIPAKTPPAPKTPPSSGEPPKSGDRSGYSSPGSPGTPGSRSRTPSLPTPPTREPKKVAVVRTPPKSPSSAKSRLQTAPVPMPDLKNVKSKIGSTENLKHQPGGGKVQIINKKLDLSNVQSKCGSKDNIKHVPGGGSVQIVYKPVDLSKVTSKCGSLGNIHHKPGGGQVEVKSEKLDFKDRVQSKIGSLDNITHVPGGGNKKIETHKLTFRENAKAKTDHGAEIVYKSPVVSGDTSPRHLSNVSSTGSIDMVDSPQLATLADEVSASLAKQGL
T1 sequence (P56817 whole entry): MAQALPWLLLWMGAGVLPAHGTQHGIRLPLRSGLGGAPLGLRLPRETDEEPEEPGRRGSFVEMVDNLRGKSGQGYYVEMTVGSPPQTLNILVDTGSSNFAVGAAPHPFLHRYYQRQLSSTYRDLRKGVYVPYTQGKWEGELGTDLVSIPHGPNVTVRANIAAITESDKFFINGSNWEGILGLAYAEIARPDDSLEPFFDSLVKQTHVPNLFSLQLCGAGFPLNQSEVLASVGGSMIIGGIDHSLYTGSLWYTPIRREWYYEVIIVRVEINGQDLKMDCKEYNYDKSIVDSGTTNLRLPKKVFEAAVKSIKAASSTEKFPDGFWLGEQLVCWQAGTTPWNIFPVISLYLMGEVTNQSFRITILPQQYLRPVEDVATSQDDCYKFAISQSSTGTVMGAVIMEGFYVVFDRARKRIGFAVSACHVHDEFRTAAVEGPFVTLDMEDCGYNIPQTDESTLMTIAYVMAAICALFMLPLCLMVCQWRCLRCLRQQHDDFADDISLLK
Sequence of Acetylcholinesterase (P22303 whole entry): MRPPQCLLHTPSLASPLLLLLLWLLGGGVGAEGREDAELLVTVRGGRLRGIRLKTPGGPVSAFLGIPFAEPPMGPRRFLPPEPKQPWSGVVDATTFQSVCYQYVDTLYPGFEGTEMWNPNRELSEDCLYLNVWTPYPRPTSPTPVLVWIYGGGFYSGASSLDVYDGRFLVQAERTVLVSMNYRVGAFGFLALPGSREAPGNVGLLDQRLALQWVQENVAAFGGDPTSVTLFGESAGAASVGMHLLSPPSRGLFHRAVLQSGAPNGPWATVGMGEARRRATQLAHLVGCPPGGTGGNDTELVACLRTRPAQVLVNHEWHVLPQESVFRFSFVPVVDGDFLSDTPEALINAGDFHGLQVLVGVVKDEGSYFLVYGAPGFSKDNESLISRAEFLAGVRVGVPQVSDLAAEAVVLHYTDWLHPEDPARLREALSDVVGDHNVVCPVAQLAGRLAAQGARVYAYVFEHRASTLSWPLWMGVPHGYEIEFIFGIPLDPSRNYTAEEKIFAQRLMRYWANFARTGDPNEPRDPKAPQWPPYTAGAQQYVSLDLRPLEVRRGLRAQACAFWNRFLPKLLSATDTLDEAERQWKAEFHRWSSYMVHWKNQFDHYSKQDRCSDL
Sequence of Amyloid-beta precursor protein (Homo sapiens) (P05067 whole entry): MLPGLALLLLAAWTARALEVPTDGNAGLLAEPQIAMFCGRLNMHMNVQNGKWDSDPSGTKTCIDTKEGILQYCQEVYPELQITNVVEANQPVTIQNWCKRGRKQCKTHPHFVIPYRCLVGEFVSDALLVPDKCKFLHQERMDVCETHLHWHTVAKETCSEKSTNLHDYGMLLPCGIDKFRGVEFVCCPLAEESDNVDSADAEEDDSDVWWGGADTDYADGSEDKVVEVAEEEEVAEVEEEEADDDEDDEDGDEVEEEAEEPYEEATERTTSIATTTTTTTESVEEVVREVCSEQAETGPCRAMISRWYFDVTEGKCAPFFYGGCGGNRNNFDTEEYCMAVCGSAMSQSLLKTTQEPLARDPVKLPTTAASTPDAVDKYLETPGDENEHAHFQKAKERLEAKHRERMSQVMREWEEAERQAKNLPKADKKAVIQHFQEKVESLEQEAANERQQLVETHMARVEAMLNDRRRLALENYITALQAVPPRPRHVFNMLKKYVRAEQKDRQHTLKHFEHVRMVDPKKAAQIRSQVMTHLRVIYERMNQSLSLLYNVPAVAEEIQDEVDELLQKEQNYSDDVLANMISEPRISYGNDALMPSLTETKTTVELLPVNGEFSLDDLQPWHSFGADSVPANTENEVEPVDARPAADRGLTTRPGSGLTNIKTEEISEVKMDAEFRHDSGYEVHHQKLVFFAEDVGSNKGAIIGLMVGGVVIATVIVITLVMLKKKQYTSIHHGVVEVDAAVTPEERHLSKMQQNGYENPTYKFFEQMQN
Sequence of Cholinesterase (P06276 whole entry): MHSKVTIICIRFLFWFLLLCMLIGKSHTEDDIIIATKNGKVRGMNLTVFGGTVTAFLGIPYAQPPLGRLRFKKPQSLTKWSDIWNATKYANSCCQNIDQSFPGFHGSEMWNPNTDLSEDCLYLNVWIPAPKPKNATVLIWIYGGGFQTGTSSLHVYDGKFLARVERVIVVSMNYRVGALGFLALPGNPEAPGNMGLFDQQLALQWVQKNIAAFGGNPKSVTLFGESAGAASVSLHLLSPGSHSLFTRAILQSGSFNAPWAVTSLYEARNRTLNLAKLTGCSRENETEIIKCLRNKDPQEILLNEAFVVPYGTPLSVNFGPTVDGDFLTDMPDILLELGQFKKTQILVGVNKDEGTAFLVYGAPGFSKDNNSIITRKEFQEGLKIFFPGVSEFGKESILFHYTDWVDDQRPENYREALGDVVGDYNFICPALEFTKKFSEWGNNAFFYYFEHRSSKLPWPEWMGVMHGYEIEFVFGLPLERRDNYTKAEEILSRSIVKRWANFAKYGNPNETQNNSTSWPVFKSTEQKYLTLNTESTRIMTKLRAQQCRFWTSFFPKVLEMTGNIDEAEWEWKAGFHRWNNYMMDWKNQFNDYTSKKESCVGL

SMILES	Papp [1]	IC50 (Beta-secretase 1 [2]; read-out: IC50)	inhibition [3]	inhibition [4]	inhibition [5]	other results
CC1=C[C@H]2Cc3nc4cc(Cl)ccc4c(N)c3[C@@H](C1)C2.Cl	25.4 ×10⁻⁶ cm/s	> 5000 nM	13.2%			
O=C(O)c1cc(O)c2c(c1)C(=O)c1cccc(O)c1C2=O [RHEIN]	2.7 ×10⁻⁶ cm/s			49.9%	40.8%	IC50 (Acetylcholinesterase): > 10000 nM; IC50 (Beta-secretase 1 [2]): Not Active
CC1=CC2Cc3nc4cc(Cl)ccc4c(N)c3C(C1)C2.Cl (racemic)				inactive	inactive	
CC1=CC2Cc3nc4cc(Cl)ccc4c(NCCCCCCCCCCCNC(=O)c4cc(O)c5c(c4)C(=O)c4cccc(O)c4C5=O)c3C(C1)C2.Cl (racemic)	16.4 ×10⁻⁶ cm/s	1200 nM	35.3%	40.7%	46.3%	
CC1=CC2Cc3nc4cc(Cl)ccc4c(NCCCCCCCCCNC(=O)c4cc(O)c5c(c4)C(=O)c4cccc(O)c4C5=O)c3C(C1)C2.Cl (racemic)	21.5 ×10⁻⁶ cm/s	120 nM	38%	47.9%	29.6%	
CC1=CC2Cc3nc4cc(Cl)ccc4c(NCCCCCNC(=O)c4cc(O)c5c(c4)C(=O)c4cccc(O)c4C5=O)c3C(C1)C2.Cl (racemic)	20 ×10⁻⁶ cm/s		38.7%	68%	43.7%	IC50 (Cholinesterase): 950 nM; IC50 (Acetylcholinesterase): 1.07 nM; inhibition (Beta-secretase 1 [6]): inactive
CC1=C[C@@H]2Cc3nc4cc(Cl)ccc4c(NCCCCCCCCCNC(=O)c4cc(O)c5c(c4)C(=O)c4cccc(O)c4C5=O)c3[C@H](C1)C2			43.2%	47.2%	34.3%	Activity (Hippocampus [7]): Active; Activity (Hippocampus [8]): inactive; Activity (Hippocampus [9]): inactive; Activity (Hippocampus [10]): Active; Activity (Mus musculus [11]): Active; Activity (Mus musculus [12]): Active; Activity (Hippocampus [13]): inactive; Activity (Mus musculus [14]): Active; Activity (Hippocampus [15]): inactive; Activity (Mus musculus [16]): inactive; Activity (Hippocampus [17]): Active
CC1=CC2Cc3nc4cc(Cl)ccc4c(NCCCCCCNC(=O)c4cc(O)c5c(c4)C(=O)c4cccc(O)c4C5=O)c3C(C1)C2 (racemic)			40.8%	68.4%	30.9%	IC50 (Cholinesterase): 1070 nM; IC50 (Acetylcholinesterase): 1.52 nM; inhibition (Beta-secretase 1 [6]): inactive
CC1=CC2Cc3nc4cc(Cl)ccc4c(NCCCCCCCCCCNC(=O)c4cc(O)c5c(c4)C(=O)c4cccc(O)c4C5=O)c3C(C1)C2.Cl (racemic)	18.1 ×10⁻⁶ cm/s	1190 nM	40.9%	43.3%	57.1%	
CC1=C[C@@H]2Cc3nc4cc(Cl)ccc4c(N)c3[C@H](C1)C2	23.6 ×10⁻⁶ cm/s	> 5000 nM	11.5%			inhibition (Beta-secretase 1 [18]): 14%
CC1=C[C@H]2Cc3nc4cc(Cl)ccc4c(NCCCCCCCCCNC(=O)c4cc(O)c5c(c4)C(=O)c4cccc(O)c4C5=O)c3[C@@H](C1)C2.Cl			38.4%	58.6%	24.9%	Activity (Hippocampus [8]): Active; Activity (Hippocampus [9]): inactive; Activity (Hippocampus [10]): inactive; Activity (Mus musculus [11]): Active; Activity (Mus musculus [12]): Active; Activity (Hippocampus [13]): 200%; Activity (Hippocampus [19]): Active; Activity (Mus musculus [14]): Active; Activity (Hippocampus [15]): 200%; Activity (Hippocampus [20]): Active
CC1=CC2Cc3nc4cc(Cl)ccc4c(NCc4ccc(CNC(=O)c5cc(O)c6c(c5)C(=O)c5cccc(O)c5C6=O)cc4)c3C(C1)C2.Cl (racemic)	16.3 ×10⁻⁶ cm/s	2020 nM	32.4%	57.9%	23.1%	
CC1=CC2Cc3nc4cc(Cl)ccc4c(NCCCCCCCCNC(=O)c4cc(O)c5c(c4)C(=O)c4cccc(O)c4C5=O)c3C(C1)C2.Cl (racemic)	22.4 ×10⁻⁶ cm/s	980 nM	33.1%	50.2%	29.2%	
CC1=CC2Cc3nc4cc(Cl)ccc4c(NCCCCCCCNC(=O)c4cc(O)c5c(c4)C(=O)c4cccc(O)c4C5=O)c3C(C1)C2.Cl (racemic)	27.5 ×10⁻⁶ cm/s		40.6%	63.2%	52%	IC50 (Cholinesterase): 1460 nM; IC50 (Acetylcholinesterase): 3.18 nM; inhibition (Beta-secretase 1 [6]): inactive
